The target in assay [1] is T1, human cathepsin-B (Cat-B) (Homo sapiens, UniProt P07858).
T1 construct: purchased Calbiochem, Darmstadt, Germany; host or cells: recombinant
Briefly: Cathepsin-B inhibition screening. The class given is biochemical. The settings on record: over 10 min. The procedure:
The IC50 values were calculated with the program GraFit® using the two-parameter equation. More detailed experimental protocols for the assays against each proteolytic activity of the 20S proteasome, as well as against bovine pancreatic α-chymotrypsin, are already reported elsewhere (see also Supplementary Materials). Cat-B and Cat-L were purchased from Calbiochem, Darmstadt, Germany, and the related assays were performed as previously described. […] Assay for Bovine Pancreatic α-Chymotrypsin Inhibition The enzyme ([…]) was incubated at 20 °C with the test compound present at 10 μM (screening assay). The reaction buffer consisted of 50 mM Tris buffer pH 8.0 containing 100 mM NaCl, 5 mM EDTA and 7.5% DMSO. Product release from substrate hydrolysis ([…] final concentration, Suc-[…] from Bachem) was determined over a period of 10 min. Assay for Cathepsin-B and Cathepsin-L Inhibition Assays were performed at 25 °C in a 20 mM Tris-HCl buffer, pH 6.0, containing 5 mM […] Substrate (Cbz-Phe-Arg-AMC for both enzymes) and inhibitor stock solutions were prepared in DMSO (10% final concentration) and were diluted with assay buffer; enzymes were held in buffer. The final substrate concentration for inhibition assays was between 10.0 and 81.0 […] for CB (recombinant, human liver). […] μM and 140 μM. Product release from substrate hydrolysis was determined over a period of 10 min.

In another assay the test system is CEM/ADR5000 cells. Briefly: Resazurin cytotoxicity assay, multidrug-resistant CEM/ADR5000 leukemia cells. The class given is cell-based, human. Particulars: for IC50: cell growth, resazurin assay, 72 h incubation, IC50 ± SD, n = 3; for Degree of Resistance: ratio of IC50 of CEM/ADR5000 cells divided by IC50 of CCRF-CEM cells. The procedure:
(§1) Drug-sensitive CCRF-CEM and multidrug-resistant (MDR) P-glycoprotein (P-gp)-over-expressing CEM/ADR5000 leukemic cells were kindly provided by Prof. Axel Sauerbrey (Department of Pediatrics, University of Jena, Germany). Cells were cultured in RPMA1640 medium including 10% fetal bovine serum (FBS) and 1% penicillin (1000 U/mL)/streptomycin (100 µg/mL) (Life Technologies, Darmstadt, Germany). Doxorubicin (5000 ng/mL) was added to maintain overexpression of P-gp (MDR1 and ABCB1) in CEM/ADR5000 cells. Doxorubicin was obtained from the University Pharmacy of the University Medical Center Mainz. CEM/ADR5000 cells display a more than 1000-fold resistance to doxorubicin [27] and are therefore a suitable model to identify novel drugs without or very low cross-resistance.
(§2) The cytotoxic effects of the compounds solved in DMSO (Sigma-Aldrich, Taufkirchen, Germany) were tested by the resazurin assay. This assay is based on reduction of the indicator dye, resazurin, to the highly fluorescent resorufin by viable cells. Cells lethally damaged by cytotoxic compounds rapidly lose the enzymatic capability to reduce non-fluorescent resazurin to the highly fluorescent resorufin. As the reductive potential happens in a dose-dependent manner, this chemical reaction can be exploited to quantitatively determine the cytotoxic potential of investigational compounds and to measure dose-response relationships. With increasing concentrations of a cytotoxic drug, the fluorescence signal fades out. Aliquots of 10,000 cells/100 µL cells were seeded into 96-well plates (Thermo-Scientific, Dreieich, Germany) and immediately treated with various concentrations of each compound. After 72 h incubation at 37 °C, 20 µL resazurin 0.01% w/v solution (Invitrogen, Dreieich, Germany) were added to each well, and the plates were maintained at 37 °C for 4 h. Fluorescence was measuring by an Infinite M2000 Proplate reader (Tecan, Crailsheim, Germany) with an excitation wavelength of 544 nm and an emission wavelength of 590 nm. Each experiment was done at least three times with six replicates each. The viability was analyzed in comparison with untreated cells. […] It is a well-established measure to determine the cytotoxic potential of anticancer drugs. The IC50 values were calculated from a calibration curve by linear regression using Microsoft Excel.

The target in assay [2] is T2, peptidyl-glutamyl peptide-hydrolyzing (PGPH or caspase-like C-L) activity of human 20S proteasome (Homo sapiens, UniProt P28072).
T2 construct: 20S proteasome, isolated and purified from human erythrocytes; purchased Biomol GmbH, Hamburg, Germany; host or cells: human erythrocytes (native complex)
Briefly: Inhibition of peptidyl-glutamyl peptide-hydrolyzing activity of 20S proteasome (Cbz-Leu-Leu-Glu-AMC). The class given is biochemical. Particulars: for PGPH (C-L) inhibition at 10 µM: over 10 min; for IC50: 10 min, no pre-incubation, 30 °C. The procedure: 20S proteasome, isolated and purified from human erythrocytes, was obtained from a commercial source (Biomol GmbH, Hamburg, Germany), as well as the peptidic substrates (Bachem, Bubendorf, Switzerland) Suc-Leu-Leu-Val-Tyr-AMC, Boc-Leu-Arg-Arg-AMC and Cbz-Leu-Leu-Glu-AMC for ChT-L, T-L and PGPH (C-L) activity of the enzyme, respectively. The three distinct proteolytic activities of the 20S proteasome were measured by monitoring the hydrolysis of the substrates and detecting the fluorescence of the common product released, i.e., 7-amino-4-methyl coumarin (7-AMC), by means of an Infinite 200 PRO microplate reader (Tecan, Männedorf, Switzerland) at 30 °C with a 380-nm excitation filter and a 460-nm emission filter. All gold and silver complexes were tested against the three proteolytic activities of the 20S proteasome and against Cat-B, Cat-L and bovine pancreatic α-chymotrypsin at 10 µM concentrations over a period of 10 min using an equivalent amount of DMSO as a negative control. […] The IC50 values were calculated with the program GraFit® using the two-parameter equation. More detailed experimental protocols for the assays against each proteolytic activity of the 20S proteasome, as well as against bovine pancreatic α-chymotrypsin, are already reported elsewhere (see also Supplementary Materials). Cat-B and Cat-L were purchased from Calbiochem, Darmstadt, Germany, and the related assays were performed as previously described. The employed fluorogenic substrate for both cysteine proteases was Cbz-Phe-Arg-AMC (80 µM for Cat-B; 5 µM for Cat-L). […]
Inhibition assay for the Post-Glutamyl Peptide Hydrolyzing Activity of the 20S
with the test compound present at 10 µM (screening assay) or variable concentrations. The
reaction buffer consisted of 50 mM Tris buffer pH 7.5 containing 25 mM KCl, 10 mM NaCl,
1 mM MgCl2, 0.03% SDS, 5% DMSO. Product release from substrate hydrolysis ([…])
was monitored continuously over a period of 10 min.

The next assay relates to CCRF-CEM cells. In words: Resazurin cytotoxicity assay, drug-sensitive CCRF-CEM leukemia cells. The settings on record: cell growth, 72 h incubation, IC50 ± SD, n = 3. The class given is cell-based, human. The method, then:
as §1, §2
(Resazurin is reduced to fluorescent resorufin, in cell work by metabolically active cells.)

Assay [3] has as its system human embryonic kidney cells (HEK293). Also on record: method as in PMID 29057040. The settings on record: previously assessed, ref [18], read-out: IC50, cell viability of healthy cells (HEK293); cited from earlier work.
For assay [4], the system named is human fibroblast cells (HDF). Also on record: method as in PMID 29057040. Particulars: previously assessed, ref [18], read-out: IC50, cell viability of healthy cells (HDF); cited from earlier work.

We go through eight compounds from PMC7582876, “Antiproliferative Properties of a Few Auranofin-Related Gold(I) and Silver(I) Complexes in Leukemia Cells and their Interferences with the Ubiquitin Proteasome System” (Molecules, 2020).

The structures appear in SMILES notation.

As for `CC[PH](CC)(CC)[Ag][Cl]` [Ag(PEt3)Cl], in assay [1], the “Cat-B Inhibition (%) at 10 µM” value is “n.i”. In the assay with CEM/ADR5000 cells, the half-maximal inhibitory concentration (IC50) (in general, the concentration at which inhibition is half-maximal) stood at 2640 ± 480 nM and the “Degree of Resistance” value is listed as 1.94. In addition, in assay [2], the “PGPH (C-L) inhibition at 10 µM” value is given as “n.i”. In the assay on CCRF-CEM cells, this compound had an IC50 of 1360 ± 250 nM.

Take `CC[PH](CC)(CC)[Ag][I]` [Ag(PEt3)I]: the “Cat-B Inhibition (%) at 10 µM” value in assay [1] is on record as “n.i”. The IC50 came to 1460 ± 150 nM with CEM/ADR5000 cells and 1280 ± 120 nM in the assay on CCRF-CEM cells. Moreover, the “Degree of Resistance” value in the assay with CEM/ADR5000 cells came to 1.14. In addition, the “PGPH (C-L) inhibition at 10 µM” value in assay [2] is reported as “n.i”.

As to `CC(=O)OC[C@H]1O[C@@H]([S-])[C@H](OC(C)=O)[C@@H](OC(C)=O)[C@@H]1OC(C)=O.CCP(CC)CC.[Au+]` [auranofin, Auranofin], the IC50 is more than 5000 nM in assay [3], more than 5000 nM in assay [4], 280 ± 60 nM with CEM/ADR5000 cells and 220 ± 80 nM with CCRF-CEM cells. The “Cat-B Inhibition (%) at 10 µM” value in assay [1] is given as “n.i”. The “Degree of Resistance” value in the assay on CEM/ADR5000 cells was 1.27. Moreover, the “PGPH (C-L) inhibition at 10 µM” value in assay [2] is given as “n.i”.

For the compound `CC[P](CC)(CC)[Au][I]` [Au(PEt3)I], the IC50 was more than 5000 nM in assay [3]; more than 5000 nM in assay [4]; 280 ± 80 nM with CEM/ADR5000 cells; more than 10000 nM in assay [2]; 320 ± 70 nM in the assay on CCRF-CEM cells. Besides, the “Cat-B Inhibition (%) at 10 µM” value in assay [1] turned out to be 29 ± 1.7%. The “Degree of Resistance” value with CEM/ADR5000 cells was determined as 0.87.

Regarding `CCP(CC)CC.[Au+].[Cl-]` [Au(PEt3)Cl], the IC50 in assay [3] was more than 5000 nM; in assay [4] it was more than 5000 nM; in the assay with CEM/ADR5000 cells it was 260 ± 40 nM; in assay [2], more than 10000 nM; with CCRF-CEM cells it was 350 ± 30 nM. The “Cat-B Inhibition (%) at 10 µM” value in assay [1] was found to be 29 ± 0.2%. Further, in the assay on CEM/ADR5000 cells, the “Degree of Resistance” value is 0.74.

In the case of `CC[PH](CC)(CC)[Ag][Br]` [Ag(PEt3)Br], in assay [1], the “Cat-B Inhibition (%) at 10 µM” value was “n.i”. Moreover, the IC50 stood at 3890 ± 700 nM with CEM/ADR5000 cells and 1500 ± 100 nM with CCRF-CEM cells. In addition, in the assay with CEM/ADR5000 cells, the “Degree of Resistance” value was 2.59. In addition, the “PGPH (C-L) inhibition at 10 µM” value in assay [2] is listed as “n.i”.

In the case of `CCP(CC)CC.CCP(CC)CC.O=[N+]([O-])[O-].[Ag+]` [[Ag(PEt3)2]NO3], in assay [1], the “Cat-B Inhibition (%) at 10 µM” value is recorded as “n.i”. Further, the “Degree of Resistance” value in the assay on CEM/ADR5000 cells was found to be 3.05. Moreover, the “PGPH (C-L) inhibition at 10 µM” value in assay [2] is “n.i”.

On to `CCP(CC)CC.[Br][Au]` [Au(PEt3)Br], for which, in assay [1], the “Cat-B Inhibition (%) at 10 µM” value worked out at 31 ± 2.2%. Further, the half-inhibitory concentration (IC50) was 270 ± 50 nM with CEM/ADR5000 cells, more than 10000 nM in assay [2] and 280 ± 60 nM in the assay with CCRF-CEM cells. For the same compound, the “Degree of Resistance” value with CEM/ADR5000 cells came to 0.96.
